# Experimental data taken from patent US20210338647A1, “Combination of Acetylcholinesterase Inhibitor and 5-HT4 Receptor Agonist As Neuroprotective Agent In the Treatment of Neurodegenerative Diseases” (UNIVERSITE DE CAEN NORMANDIE, priority 2018, published 2021).
# Tests used:
# [1] = system: rat primary hippocampal neurons injured with Aβ 1-42; assay: Number of synapses (PSD95/SYN overlap) in primary culture of hippocampal neurons injured with Aβ 1-42; assay type: cell-based; settings: from 5 nM to 1 μM; Aβ 1-42 injured hippocampal neurons; Example 1
# Protocol: Rat hippocampal neurons were cultured as described by Callizot et al. (2013) J. Neurosci. Res. 91706-716. Pregnant female rats of 17 days gestation (Rats Wistar; Janvier Labs France) were killed using a deep anesthesia with CO2 chamber followed by a cervical dislocation. Then, fetuses were removed from the uterus and immediately placed in ice-cold L15 Leibovitz medium with a 2% penicillin (10,000 U/ml) and streptomycin (10 mg/ml) solution (PS) and 1% bovine serum albumin (BSA). Hippocampal neurons were treated for 20 min at 37° C. with a trypsin-EDTA solution at a final concentration of 0.05% trypsin and 0.02% EDTA. The dissociation was stopped by adding Dulbecco's modified Eagle's medium (DMEM) with 4.5 g/l of glucose, containing DNAse I grade 11 (final concentration 0.5 mg/ml) and 10% fetal calf serum (FCS). Cells were mechanically dissociated by three forced passages through the tip of a 10-ml pipette and then centrifuged at 515×g for 10 min at 4° C. The supernatant was discarded, and the pellet was resuspended in a defined culture medium consisting of Neurobasal medium with a 2% solution of B27 supplement, 2 mmol/l of L-glutamine, 2% of PS solution, and 10 ng/ml of brain-derived neurotrophic factor (BDNF). Viable cells were counted in a Neubauer cytometer, using the trypan blue exclusion test. […] The medium was changed every 2 days.
# The hippocampal neurons were exposed with Aβ solutions (see below) after 17 days of culture. The Aβ1-42 preparation was done following the procedure described by Callizot et al. (2013) J. Neurosci. Res. 91706-716. Briefly, Aβ1-42 peptide was dissolved in the defined culture medium mentioned above, at an initial concentration of 40 μM. This solution was gently agitated for 3 days at 37° C. in the dark and immediately used after being properly diluted in culture medium to the concentrations used (20 μM (plate 1) or 2.5 μM (plate 2) corresponding to 2 μM or 0.25 μM of oligomers (AβO) respectively).
# Donecopride fumarate was solved in culture medium and preincubated 1 h before Aβ application. Aβ1-42 preparation was added to a final concentration of 20 or 2.5 μM (=2 μM or 0.25 μM of AβO, evaluated by automatic Western Blot) diluted in control medium in presence of Donecopride.
# Donecopride fumarate (Donecopride) was tested on one culture in a 96 well plate (6 wells per conditions). The compound was preincubated one hour before […] application. The following conditions were assessed:
# After permeabilization with 0.1% of saponin, cells were incubated for 2 h with:
# a) mouse monoclonal antibody anti post synaptic density 95 kDa (PSD95) at a dilution of 1/100 in PBS containing 1% fetal calf serum and 0.1% of saponin.
# b) Rabbit polyclonal antibody anti-synaptophysin (SYN) at the dilution of 1/100 in PBS containing 1% fetal calf serum and 0.1% of saponin.
# For each condition, 40 pictures per well were taken using ImageXpress (Molecular Devices) with 40× magnification. All images were taken with the same acquisition parameters.
# Synapses evaluation was performed automatically by using Custom module editor (Molecular Devices).
# Total number of synapses (overlapping between PSD95/SYN).
# To assess the formation of synapses, the distribution of PSD-95, a post-synaptic marker, and synaptophysin, a pre-synaptic marker, was studied. A structure positive for both PSD-95 and synaptophysin staining was considered as a synapse.
# Rat hippocampal neurons were cultured as described by Callizot et al. (2013) J. Neurosci. Res. 91:706-716.
# 5XFAD mice [2] = assay: Astrogliosis (GFAP staining) in brain sections of 5XFAD mice; assay type: in vivo, mouse; settings: 1 mg/kg twice a week for 3 months, versus controls
# Protocol: (§1) 5XFAD mice received chronic treatments with drugs or vehicle according to 2 different protocols. In each experiment, drugs or vehicle solution were administered i.p. twice a week (1 mg/kg). In “Protocol 1”, mice (n=6-7 mice per group) were treated with compounds for two months, from 2 to 4 months of age. In “Protocol 2”, mice (n=7) were treated with compounds for three months, from 1 month to 4 months of age. At the end of each protocol, mice were anesthetized with a mixture of 100 mg/kg ketamine and 10 mg/kg xylazine in saline solution and perfused transcardially with PBS. Brains were quickly isolated on ice, the olfactory bulbs and cerebellum removed and the two hemispheres divided. One hemisphere was frozen on dry ice and stored at −80° C. for biochemical analysis, while the other was post-fixed in 4% PFA for immunohistochemistry (IHC).
# Thirty-micrometer-thick sections were cut using a vibratome (Microm HM 650V, Thermo Scientific, Saint Herblain, France) and stored in cryoprotectant medium at −20° C. For the labeling of amyloid plaques, free-floating tissue sections of frontal cortex, hippocampus and entorhinal cortex (coordinates from the bregma: frontal cortex=1.98 mm, hippocampus=−1.94 mm, entorhinal cortex=−3.08 mm) were extensively washed in PBS and then incubated in blocking solution (PBS; 3% BSA; 0.1% Triton X-100) for 1 h. Sections were stained with Hoechst dye (1:1000, Life Technologies, Saint Aubin, France) for 15 minutes to detect cell nuclei and then with freshly prepared thioflavin T solution (#T3516-5G, Sigma-Aldrich) (final concentration: 0.01 mg/ml in blocking buffer) for 15 minutes. After washing in 70% ethanol for 5 minutes, samples were mounted on poly-lysine slides with coverslips. For GFAP (glial fibrillary acidic protein) staining, free-floating brain sections were blocked as before and incubated with polyclonal rabbit anti-GFAP (1:1000, Z0334, Dako, Les Ullis, France) at 4° C. overnight. After thioflavin T staining and washing with 70% ethanol, the secondary Alexafluor 594 goat anti-rabbit antibody (1:1000, A11012, Life Technologies) was added for 2 h. PBS washes and mounting were performed as described before.
# Images were acquired with an Axiolmager Z1 microscope (Carl Zeiss S.A.S., Marly le Roi, France). Analysis of thioflavin T staining was performed blindly and data are presented as the mean number of particles per mm^2 in two to three tissue sections from the same brain area/animal (Image J software). GFAP expression was quantified using Image J software and results are expressed as area fractions.
# (§2) 28 female 5XFAD mice (C57BL/6J genetic background) were used in this study. Mice received vehicle or compounds (1 mg/kg) i.p., twice a week for three months, from 1 to 4 months of age.
# 5XFAD mice [3] = assay: Amyloid plaque number (thioflavin T staining) in brain sections of 5XFAD mice; assay type: in vivo, mouse; settings: 1 mg/kg twice a week for 3 months, versus controls
# Protocol: as §1
# Thirty-micrometer-thick sections were cut using a vibratome (Microm HM 650V, Thermo Scientific, Saint Herblain, France) and stored in cryoprotectant medium at −20° C. […]
# Images were acquired with an Axiolmager Z1 microscope (Carl Zeiss S.A.S., Marly le Roi, France). […] GFAP expression was quantified using Image J software and results are expressed as area fractions. […]
# 5XFAD mice [4] = assay: Novel object recognition test in chronically treated 5XFAD mice; assay type: in vivo, mouse; settings: 5XFAD females, 1 mg/kg twice a week for 3 months
# Protocol: as §1, §2
# 5XFAD mice [5] = assay: Aβ42 concentration in cerebrospinal fluid of chronically treated 5XFAD mice; assay type: in vivo, mouse; settings: 1 mg/kg twice a week for 3 months, versus controls
# Protocol: as §1, §2
smiles,measurement,setting,value
COc1cc(N)c(Cl)cc1C(=O)CCC1CCN(CC2CCCCC2)CC1 [Donecopride],Preservation of the number of synapses,[1],"preserve the number of synapses, on a dose dependent manner"
same,GFAP staining in frontal cortex,5XFAD mice [2],not significantly different compared to controls
same,GFAP staining in hippocampus,5XFAD mice [2],not significantly different compared to controls
same,Amyloid plaque number in hippocampus,5XFAD mice [3],not significantly different compared to controls
same,Total exploration time during the training session (NOR test),5XFAD mice [4],did not differ significantly
same,Recognition memory: time exploring novel versus familiar object (NOR test),5XFAD mice [4]; 24 h interval between training and test,able to prevent memory alteration
same,Aβ42 concentration in cerebrospinal fluid (CSF),5XFAD mice [5],not significantly different compared to controls
